Data set [1] has as its target T1, BTK (Homo sapiens (Human), UniProt Q06187). In words: In house ELISA kinase inhibition assay, BTK. In kind it is biochemical. Conditions: footnote b: from in house procedure (ELISA). The gist of the method: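 ELISA with biotinylated peptide substrate at 20 μmol/L (ITK 30 μmol/L); kinases preincubated with compound 1 h at 25° C in HEPES pH 7.4, MgCl2, MnCl2, DTT, then 3 μmol/L ATP added for 2 h. Phosphoproduct captured on anti-phosphotyrosine antibody, detected with HRP-streptavidin/TMB at 450 nm; IC50 by curve fit.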

The target in another data set is BMX (Homo sapiens (Human), UniProt P51813). In words: In house ELISA kinase inhibition assay, BMX. In kind it is biochemical. Conditions: for pIC50: in house ELISA; for Selectivity ratio: selectivity for BTK and BMX. The method, then:
(§1) BTK inhibition Assay and selectivity Assay The assay was conducted either a by a third party (Reaction Biology Corporation, PA, USA) or in house.
(§2) b) In House Procedure for BTK, BMX, EGFR and ITK:
(§3) Kinase inhibitory activities of compounds were evaluated using the Enzyme-linked immunosorbent assay (ELISA). The kinase enzyme of BTK, BMX, EGFR and ITK were purchased from Carna Bioscience (Kobe, Japan). A total of 10 ng/mL antiphosphotyrosine (PY713) antibody (abcam, Cambridge Science Park, UK) was precoated in 96-well ELISA plates. The kinase enzymes in each reaction well were set to BTK (101.25 ng/mL), BMX (90 ng/mL), EGFR (90 ng/mL) or ITK (120 ng/mL) and incubated with indicated drugs in 1× reaction buffer (50 mmol/L HEPES pH 7.4, 20 mmol/L MgCl2, 0.1 mmol/L MnCl2, 1 mmol/L DTT) containing 20 μmol/L (the final concentration of substrate in ITK reaction was 30 μmol/L) substrate (NH2-[…]-biotin) at 25° C. for 1 h. Then, a total of 3 μmol/L ATP was added and the reaction was continued for 2 h. The products of reaction were transferred into 96-well ELISA plates containing antibody and incubated at 25° C. for 30 min. After incubation, the wells were washed with PBS and then incubated with horseradish peroxidase (HRP)-conjugated streptavidin. The wells were visualized using 3,3′,5,5′-tetramethylbenzidine (TMB), and chromogenic reaction was ended with 2 mol/L H2SO4, the absorbance was read with a multimode plate reader (PerkinElmer, USA) at 450 nm. IC50 values and curve fits were obtained using Prism (GraphPad Software). (Table I-IV)

The target of a further data set is ITK (Homo sapiens (Human), UniProt Q08881). In words: In house ELISA kinase inhibition assay, ITK. In kind it is biochemical. Conditions: for pIC50: in house ELISA; for Selectivity ratio: selectivity for BTK and ITK. The method, then:
as §1, §2, §3

A further data set addresses EGFR (Homo sapiens (Human), UniProt P00533). In words: In house ELISA kinase inhibition assay, EGFR. Conditions: for pIC50: in house ELISA; for Selectivity ratio: selectivity for BTK and EGFR. In kind it is biochemical. As to the method:
as §1, §2, §3

The test system of another data set is TMD-8. In words: In-vitro antitumor activity assay (CellTiter-Glo cell antiproliferative activity). The following applies: Homo sapiens, TMD8, TMD-8 cells, 72 h. In kind it is cell-based. As to the method: In-Vitro Antitumor Activity Assay
Method: Reagent and procedure by Hefei PreceDo pharmaceuticals Co. Ltd.
Cell antiproliferative activity was evaluated by the CellTiter-Glo (Promega, USA) assay. Make 1000× compounds solution in DMSO, add 1 μl 1000× compounds to […] growth medium to make 20× compounds. Dilute cell suspensions in growth medium to desired density and 95 μl were taken to 96-well plate. Add 5 μl 20× compounds into 96-well plate according to the plate map. Final DMSO concentration in each well was 0.1%. Then the cell was incubated at 37° C., 5% CO2 for 72 h. Equilibrate the assay plate to room temperature before measurement. Add 20 μl of CellTiter-Glo© Reagent into each well. Mix contents for 2 minutes on an orbital shaker to induce cell lysis. Incubate at room temperature for 10 minutes to stabilize luminescent signal. Record luminescence using EnVision Multilabel Reader (PerkinElmer). Cell viability (CV %) was calculated relative to vehicle (DMSO) treated control wells using following formula: Cell viability (%)=(RLU compound−RLU blank)/(RLU control−RLU blank)*100%. The IC50 values were calculated using GraphPad Prism 6.0 software, fitting to a 4-parameter equation to generate concentration response curves. All assays were conducted with three parallel samples and three repetitions.

A short description of data set [2]: Rat pharmacokinetic assay. In kind it is in vivo. The method, then: Rat Pharmacokinetic Assay
Method: Reagent and Procedure by Hefei PreceDo Pharmaceuticals Co. Ltd.
Male Sprague-Dawley rats with 6-8 weeks of age were purchased from Beijing Vital River Laboratory Animal Technology Co., Ltd. Rats were randomly assigned with three rats per group. A single dose of compound 84 or 85 was administered by tail vein injection in iv group. In po group, compound 84 or 85 was orally. Blood samples (˜0.25 mL) were obtained by orbital venous plexus at 2 min (iv only), 5 min, 15 min, 1 h, 2 h, 4 h, 6 h, 8 h, 12 h and 24 h (po only) post dose. After centrifuged at 4000 rpm for 10 min at 4° C., plasma was collected and stored at −20° C. until determine by LC-MS/MS.

The target in data set [3] is T1, BTK. In words: BTK inhibition assay by Reaction Biology Corporation (33P-ATP, filter-binding). In kind it is biochemical. Conditions: footnote a: from Reaction Biology Corporation. The method, then:
as §1
a) Reagent and Procedure by Reaction Biology Corporation:
Base Reaction buffer; 20 mM Hepes (pH 7.5), 10 mM MgCl2, 1 mM EGTA, 0.02%. Brij35, 0.02 mg/ml BSA, 0.1 mM Na3VO4, 2 mM DTT, 1% DMSO. Required cofactors were added individually to each kinase reaction. Compound handling: testing compounds were dissolved in 100% DMSO to specific concentration. The serial dilution was conducted by Integra Viaflo Assist in DMSO.
The substrate was prepared in freshly prepared reaction buffer of above and required cofactors were added to the substrate solution. The kinase was delivered to the substrate solution and the mixture was gently mixed. Testing compounds in 100% DMSO was added to the kinase reaction mixture by Acoustic technology (Echo550; nanoliter range) and the new mixture was incubated for 20 min at room temperature. Then ^33P-ATP (Specific activity 10 μCi/μl) was added to the reaction mixture to initiate the reaction and the mixture was incubated for 2 hours at room temperature. The radioactivity was detected by filter-binding method and the kinase activity data was expressed as the percent of remaining kinase activity in test sample compared to vehicle (dimethyl sulfoxide) reaction. IC50 values and curve fits were obtained using Prism (GraphPad Software). The result is outlined in Table-I

Where [4] appears, read: male, Sprague-Dawley, plasma, iv 5 mg/kg.
[5] abbreviates: male, Sprague-Dawley, plasma, iv 1 mg/kg.

Structures are written as SMILES. pIC50: −log10 of the molar value. Read-outs that look alike come from different tables or passages of the source.

ITK, sequence (Q08881 whole entry): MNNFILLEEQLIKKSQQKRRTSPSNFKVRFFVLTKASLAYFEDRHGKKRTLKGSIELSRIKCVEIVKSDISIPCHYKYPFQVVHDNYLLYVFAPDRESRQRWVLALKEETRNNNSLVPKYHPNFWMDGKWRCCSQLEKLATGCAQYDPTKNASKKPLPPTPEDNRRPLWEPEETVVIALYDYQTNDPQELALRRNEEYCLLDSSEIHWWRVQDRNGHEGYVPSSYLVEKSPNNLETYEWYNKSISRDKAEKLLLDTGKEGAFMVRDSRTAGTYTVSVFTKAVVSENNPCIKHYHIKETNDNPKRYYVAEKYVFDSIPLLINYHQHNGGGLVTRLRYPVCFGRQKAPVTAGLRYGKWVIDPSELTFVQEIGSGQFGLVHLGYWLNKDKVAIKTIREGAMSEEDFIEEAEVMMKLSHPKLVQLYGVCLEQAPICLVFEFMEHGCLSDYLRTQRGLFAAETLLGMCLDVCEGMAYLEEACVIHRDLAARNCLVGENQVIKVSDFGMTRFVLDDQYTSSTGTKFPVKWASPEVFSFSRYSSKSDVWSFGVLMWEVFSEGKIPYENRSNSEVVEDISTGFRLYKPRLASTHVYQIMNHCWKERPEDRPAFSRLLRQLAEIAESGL
EGFR, sequence (P00533 25-1210): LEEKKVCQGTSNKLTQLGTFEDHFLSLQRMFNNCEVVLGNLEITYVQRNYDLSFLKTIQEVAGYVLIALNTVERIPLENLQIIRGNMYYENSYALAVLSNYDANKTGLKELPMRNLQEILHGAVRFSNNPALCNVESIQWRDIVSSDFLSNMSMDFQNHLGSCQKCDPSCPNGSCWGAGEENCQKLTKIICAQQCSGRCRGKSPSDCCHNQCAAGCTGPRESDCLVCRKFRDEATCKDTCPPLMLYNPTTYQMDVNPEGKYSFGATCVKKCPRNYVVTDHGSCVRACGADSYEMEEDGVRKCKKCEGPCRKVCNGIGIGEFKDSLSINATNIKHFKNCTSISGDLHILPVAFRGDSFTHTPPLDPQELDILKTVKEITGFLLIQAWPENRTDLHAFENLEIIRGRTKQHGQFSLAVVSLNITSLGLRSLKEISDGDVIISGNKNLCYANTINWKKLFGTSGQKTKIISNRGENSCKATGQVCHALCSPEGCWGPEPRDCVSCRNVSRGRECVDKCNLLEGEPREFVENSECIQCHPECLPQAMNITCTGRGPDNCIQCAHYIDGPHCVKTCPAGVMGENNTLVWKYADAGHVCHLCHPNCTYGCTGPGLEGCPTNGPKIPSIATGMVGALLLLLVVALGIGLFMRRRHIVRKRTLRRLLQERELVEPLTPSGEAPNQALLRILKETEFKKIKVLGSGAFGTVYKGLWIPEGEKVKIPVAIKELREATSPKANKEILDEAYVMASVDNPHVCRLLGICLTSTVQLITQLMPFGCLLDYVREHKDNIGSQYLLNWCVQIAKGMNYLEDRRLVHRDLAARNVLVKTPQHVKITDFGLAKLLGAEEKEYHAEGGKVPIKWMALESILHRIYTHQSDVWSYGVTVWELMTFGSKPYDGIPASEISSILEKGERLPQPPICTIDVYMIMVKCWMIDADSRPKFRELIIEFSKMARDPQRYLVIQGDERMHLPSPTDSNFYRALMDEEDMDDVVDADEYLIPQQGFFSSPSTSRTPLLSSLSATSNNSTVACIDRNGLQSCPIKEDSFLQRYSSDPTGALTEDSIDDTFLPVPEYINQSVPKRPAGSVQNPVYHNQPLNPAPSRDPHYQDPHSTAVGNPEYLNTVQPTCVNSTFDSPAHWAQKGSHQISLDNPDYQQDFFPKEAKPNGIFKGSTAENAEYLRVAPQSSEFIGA
BMX, sequence (P51813 whole entry): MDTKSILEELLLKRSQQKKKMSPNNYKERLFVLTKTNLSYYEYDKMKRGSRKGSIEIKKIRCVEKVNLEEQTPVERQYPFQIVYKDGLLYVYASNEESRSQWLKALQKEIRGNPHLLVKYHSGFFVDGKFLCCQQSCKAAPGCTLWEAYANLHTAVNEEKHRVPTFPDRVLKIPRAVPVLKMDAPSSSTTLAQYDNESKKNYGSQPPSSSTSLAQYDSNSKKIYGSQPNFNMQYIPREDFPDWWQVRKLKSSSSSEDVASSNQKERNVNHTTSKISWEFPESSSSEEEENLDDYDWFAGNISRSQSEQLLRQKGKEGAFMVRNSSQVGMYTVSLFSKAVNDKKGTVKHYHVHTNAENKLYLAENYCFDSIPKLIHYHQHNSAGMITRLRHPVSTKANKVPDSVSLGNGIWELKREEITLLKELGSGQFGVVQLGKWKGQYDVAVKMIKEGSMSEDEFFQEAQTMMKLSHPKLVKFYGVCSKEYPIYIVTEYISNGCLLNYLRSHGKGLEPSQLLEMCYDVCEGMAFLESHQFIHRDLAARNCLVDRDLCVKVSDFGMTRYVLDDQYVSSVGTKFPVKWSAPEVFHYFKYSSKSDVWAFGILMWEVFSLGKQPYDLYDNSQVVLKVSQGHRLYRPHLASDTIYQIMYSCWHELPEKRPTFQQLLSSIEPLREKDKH
T1 sequence (Q06187 whole entry): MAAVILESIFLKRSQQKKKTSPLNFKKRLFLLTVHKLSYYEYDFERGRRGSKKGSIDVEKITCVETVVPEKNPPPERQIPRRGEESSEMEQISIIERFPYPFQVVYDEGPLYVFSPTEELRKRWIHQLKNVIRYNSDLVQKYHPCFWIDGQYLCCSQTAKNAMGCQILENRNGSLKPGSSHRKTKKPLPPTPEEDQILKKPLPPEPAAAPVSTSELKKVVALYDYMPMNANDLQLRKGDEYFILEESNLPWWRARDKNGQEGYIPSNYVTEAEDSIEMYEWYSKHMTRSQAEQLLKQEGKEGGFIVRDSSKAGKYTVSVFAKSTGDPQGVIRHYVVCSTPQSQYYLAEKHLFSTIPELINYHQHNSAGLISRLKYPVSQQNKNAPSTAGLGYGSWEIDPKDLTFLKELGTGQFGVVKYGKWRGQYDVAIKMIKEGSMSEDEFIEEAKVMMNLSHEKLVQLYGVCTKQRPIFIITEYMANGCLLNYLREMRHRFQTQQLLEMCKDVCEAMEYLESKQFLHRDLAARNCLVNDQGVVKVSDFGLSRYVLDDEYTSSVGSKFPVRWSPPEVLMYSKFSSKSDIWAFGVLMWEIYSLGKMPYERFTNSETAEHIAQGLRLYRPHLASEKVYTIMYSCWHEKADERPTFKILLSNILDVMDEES

Turning to `C=CC(=O)N1CCCC[C@H]1c1nc(-c2ccc(C(=O)Nc3cc(C(F)(F)F)ccn3)cc2)c(C(N)=O)n1N` [Example 84, (S)-2-(1-acryloylpiperidin-2-yl)-1-amino-4-(4-((4-(trifluoromethyl)pyridin-2-yl)carbamoyl)phenyl)-1H-imidazole-5-carboxamide], the negative logarithm of the IC50 (pIC50) against BTK [1] is 8.46. Moreover, at BMX, the pIC50 was 6.94 and the Selectivity ratio worked out at 33.0. Besides, at ITK, the pIC50 is 6.22 and the Selectivity ratio amounted to 175.6. Also, on EGFR, the pIC50 is 6.81 and the Selectivity ratio is on record as 45. The same compound came in with an IC50 with TMD-8 of 24.5 nM. In addition, in data set [2] (iv 5 mg/kg), the CL was 0.804 L/h/kg, the T1/2 is 1.32 h and the Vd stood at 1.50 L/kg. Also, in data set [2] (setting [4]), the clearance came out at 0.804 L/h/kg and the half-life is 1.32 h. Also, the AUC in data set [2] (male, Sprague-Dawley, plasma, po 5 mg/kg, read-out: AUC) was 2 µg·h/mL. Further, in data set [2] (male, Sprague-Dawley, plasma, po 5 mg/kg, read-out: Cmax), the Cmax turned out to be 0.501 µg/mL. In data set [2] (po 5 mg/kg), this compound returned an AUC of 1.996 µg·h/mL, a peak concentration (Cmax) of 0.501 µg/mL, an F of 32.4% and a T1/2 of 1.35 h.
In the case of `CC#CC(=O)N1CCCC[C@H]1c1nc(-c2ccc(C(=O)Nc3cc(C(F)(F)F)ccn3)cc2)c(C(N)=O)n1N` [Example 85, (S)-1-amino-2-(1-(but-2-ynoyl)piperidin-2-yl)-4-(4-((4-(trifluoromethyl)pyridin-2-yl)carbamoyl)phenyl)-1H-imidazole-5-carboxamide], the pIC50 against BTK [1] was 8.14; against BMX, 6.10; at ITK, 4.52; on EGFR, 4.93. Further, the Selectivity ratio is 108.2 on BMX, 4115 at ITK and 1619 at EGFR. Further, the concentration for half-maximal inhibition (IC50) in the data set with TMD-8 was determined as 54.3 nM. This compound came in with a clearance in data set [2] (setting [5]) of 3 L/h/kg. Besides, the half-life in data set [2] (setting [5]) is 1.97 h; in data set [2] (male, Sprague-Dawley, plasma, po 10 mg/kg), 2.74 h. In data set [2] (male, Sprague-Dawley, plasma, iv 1 mg/kg, read-out: Vd), the distribution volume (Vd) was found to be 8.62 L/kg. For the same compound, the AUC stood at 3.25 µg·h/mL in data set [2] (male, Sprague-Dawley, plasma, po 10 mg/kg, read-out: AUC) and 3.247 µg·h/mL in data set [2] (po 10 mg/kg). Further, the highest concentration (Cmax) in data set [2] (male, Sprague-Dawley, plasma, po 10 mg/kg, read-out: Cmax) was found to be 0.723 µg/mL. For the same compound, the F in data set [2] (po 10 mg/kg) was 90.6%. This compound gave a T1/2 in data set [2] (po 10 mg/kg) of 2.74 h.
As for `CC#CC(=O)N1CCCC[C@H]1c1nc(-c2ccc(C(=O)Nc3cc(I)ccn3)cc2)c(C(N)=O)n1N` [Example 90, (S)-1-amino-2-(1-(but-2-ynoyl)piperidin-2-yl)-4-(4-((4-iodopyridin-2-yl)carbamoyl)phenyl)-1H-imidazole-5-carboxamide], the pIC50 at BTK [3] was 7.97; on BMX, 6.65; against ITK, 6.27; against EGFR it was 5.33. Besides, the Selectivity ratio was 21.2 at BMX, 49.9 at ITK and 439 on EGFR. The half-maximal inhibitory concentration (IC50) in the data set on TMD-8 is 35.1 nM.
Take `CC#CC(=O)N1CCCC[C@H]1c1nc(-c2ccc(C(=O)Nc3cc(-c4ccc(F)cc4)ccn3)cc2)c(C(N)=O)n1N` [Example 92, (S)-1-amino-2-(1-(but-2-ynoyl)piperidin-2-yl)-4-(4-((4-(4-fluorophenyl)pyridin-2-yl)carbamoyl)phenyl)-1H-imidazole-5-carboxamide]: the pIC50 on BTK [3] was 7.83; against BMX, 6.81; against ITK it was 4.48; against EGFR, 5.96. Besides, the Selectivity ratio at BMX was found to be 10.5; at ITK it was 2255; at EGFR, 74. The IC50 in the data set with TMD-8 amounted to 90.8 nM.
Consider `CC#CC(=O)N1CCCC[C@H]1c1nc(-c2ccc(C(=O)Nc3cc(Cl)ccn3)cc2)c(C(N)=O)n1N` [Example 98, (S)-1-amino-2-(1-(but-2-ynoyl)piperidin-2-yl)-4-(4-((4-chloropyridin-2-yl)carbamoyl)phenyl)-1H-imidazole-5-carboxamide], for which the negative logarithm of the IC50 (pIC50) was 7.71 at BTK [1], 5.97 against BMX, 4.78 against ITK and 5.40 against EGFR. Further, the Selectivity ratio at BMX is on record as 55.8; on ITK, 850; at EGFR, 206. Besides, in the data set on TMD-8, the midpoint of inhibition, the IC50, lay at 37 nM.
